According to the supplement of paper PMC6045584:
± gives the standard deviation of the averaged measurements.

Assays:
[1] = compound: CC(=O)NCC(=O)N1[C@@H]2CC[C@H]1c1ccc(Nc3ncc(C(F)(F)F)c(NC4CCC4)n3)cc12; assay: surviving fraction relative to DMSO-only wells; higher = less growth inhibition; details: exposure time: 5 days
Summary of the method: (§1)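 Viability values are CellTiter-Glo luminescence readings, given as surviving fraction against the median of DMSO-only wells. The readings were taken after 10 minutes at room temperature, following five days of continuous exposure to inhibitors at 0.5, 1, 5, 10, 50, 100, 500 and 1000 nM that began 24 hours after log-phase tumour cell lines were seeded at 250–500 cells per well in 384-well plates. Every line was screened three times and kept only if replicate Pearson r >0.7 and median Z' >0.3.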

[2] = compound: T1, CC(=O)O[C@H]1C(=O)[C@@]2(C)[C@H]([C@H](OC(=O)c3ccccc3)[C@]3(O)C[C@H](OC(=O)[C@H](O)[C@@H](NC(=O)c4ccccc4)c4ccccc4)C(C)=C1C3(C)C)[C@]1(OC(C)=O)CO[C@@H]1C[C@@H]2O [PACLITAXEL]; assay: as above; details: exposure time: 5 days
Summary of the method: as §1

[3] = compound: CC(=O)c1c(C)c2cnc(Nc3ccc(N4CCNCC4)cn3)nc2n(C2CCCC2)c1=O; assay: as above; details: exposure time: 5 days
Summary of the method: as §1

[4] = compound: T2, CC[C@@]1(O)C(=O)OCc2c1cc1n(c2=O)Cc2cc3ccccc3nc2-1 [CAMPTOTHECIN]; assay: as above; details: exposure time: 5 days
Summary of the method: as §1

[5] = compound: T3, COCC[n+]1c2c(n(Cc3cnccn3)c1C)C(=O)c1ccccc1C2=O [YM155]; assay: as above; details: exposure time: 5 days
Summary of the method: as §1

[6] = compound: T4, COc1cc2ncnc(Nc3ccc(F)c(Cl)c3)c2cc1OCCCN1CCOCC1 [GEFITINIB]; assay: as above; details: exposure time: 5 days
Summary of the method: as §1

[7] = compound: T5, C[C@]1(O)C[C@@H](c2nc(-c3ccc4ccc(-c5ccccc5)nc4c3)c3c(N)nccn32)C1 [OSI-906]; assay: as above; details: exposure time: 5 days
Summary of the method: as §1

[8] = compound: T6, Cc1ccc(-c2cc(C(F)(F)F)nn2-c2ccc(S(N)(=O)=O)cc2)cc1 [CELECOXIB]; assay: as above; details: exposure time: 5 days
Summary of the method: as §1

[9] = compound: O=C(O)C1(C(=O)O)CCC1.[NH2-].[NH2-].[Pt+2] [CARBOPLATIN]; assay: as above; details: exposure time: 5 days
Summary of the method: as §1

[10] = compound: CC(=O)NCC(=O)N1[C@@H]2CC[C@H]1c1ccc(Nc3ncc(C(F)(F)F)c(NC4CCC4)n3)cc12; assay: area under dose-response curve of surviving fraction (unscaled, Aref=0) (surviving fraction x log10(nM)); higher = more resistant; details: exposure time: 5 days; dose range 0.5-1000 nM
Summary of the method: (§2)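 Tumour cell lines in 384-well plates were exposed for five days to eight inhibitor concentrations from 0.5 to 1000 nM. Viability was read by CellTiter-Glo luminescence, normalised to DMSO-only wells, in three screens per line. Dose-response survival curves were fitted to surviving fractions by 3-parameter logistic regression in the drc R package. Area under the curve is the unscaled activity area (Aref = 0) over log10 dose.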

[11] = compound: T1, PACLITAXEL; assay: as above; details: exposure time: 5 days; dose range 0.5-1000 nM
Summary of the method: as §2

[12] = compound: CC(=O)c1c(C)c2cnc(Nc3ccc(N4CCNCC4)cn3)nc2n(C2CCCC2)c1=O; assay: as above; details: exposure time: 5 days; dose range 0.5-1000 nM
Summary of the method: as §2

[13] = compound: T2, CAMPTOTHECIN; assay: as above; details: exposure time: 5 days; dose range 0.5-1000 nM
Summary of the method: as §2

[14] = compound: T3, YM155; assay: as above; details: exposure time: 5 days; dose range 0.5-1000 nM
Summary of the method: as §2

[15] = compound: T4, GEFITINIB; assay: as above; details: exposure time: 5 days; dose range 0.5-1000 nM
Summary of the method: as §2

[16] = compound: T5, OSI-906; assay: as above; details: exposure time: 5 days; dose range 0.5-1000 nM
Summary of the method: as §2

[17] = compound: T6, CELECOXIB; assay: as above; details: exposure time: 5 days; dose range 0.5-1000 nM
Summary of the method: as §2

MG63 BONE
surviving fraction ([1]; 0.5 nM): 0.974 ± 0.0053
surviving fraction ([1]; 1 nM): 0.966 ± 0.015
surviving fraction ([1]; 5 nM): 0.99 ± 0.024
surviving fraction ([1]; 10 nM): 0.987 ± 0.013
surviving fraction ([1]; 50 nM): 0.816 ± 0.003
surviving fraction ([1]; 100 nM): 0.594 ± 0.021
surviving fraction ([1]; 500 nM): 0.298 ± 0.021
surviving fraction ([1]; 1000 nM): 0.227 ± 0.007
surviving fraction ([2]; 0.5 nM): 0.901 ± 0.049
surviving fraction ([2]; 1 nM): 0.881 ± 0.021
surviving fraction ([2]; 5 nM): 0.263 ± 0.016
surviving fraction ([2]; 10 nM): 0.095 ± 0.01
surviving fraction ([2]; 50 nM): 0.0463 ± 0.0055
surviving fraction ([2]; 100 nM): 0.038 ± 0.0044
surviving fraction ([2]; 500 nM): 0.0287 ± 0.0015
surviving fraction ([2]; 1000 nM): 0.03 ± 0.002
surviving fraction ([3]; 0.5 nM): 1.033 ± 0.0085
surviving fraction ([3]; 1 nM): 1.01 ± 0.044
surviving fraction ([3]; 5 nM): 1.039 ± 0.0042
surviving fraction ([3]; 10 nM): 1.04 ± 0.021
surviving fraction ([3]; 50 nM): 1.07 ± 0.035
surviving fraction ([3]; 100 nM): 1.07 ± 0.031
surviving fraction ([3]; 500 nM): 0.914 ± 0.02
surviving fraction ([3]; 1000 nM): 0.868 ± 0.034
surviving fraction ([4]; 0.5 nM): 0.873 ± 0.015
surviving fraction ([4]; 1 nM): 0.871 ± 0.028
surviving fraction ([4]; 5 nM): 0.434 ± 0.019
surviving fraction ([4]; 10 nM): 0.295 ± 0.0068
surviving fraction ([4]; 50 nM): 0.0393 ± 0.0065
surviving fraction ([4]; 100 nM): 0.024 ± 0.001
surviving fraction ([4]; 500 nM): 0.02 ± 0.001
surviving fraction ([4]; 1000 nM): 0.023 ± 0.001
surviving fraction ([5]; 0.5 nM): 0.978 ± 0.036
surviving fraction ([5]; 1 nM): 1.04 ± 0.057
surviving fraction ([5]; 5 nM): 0.783 ± 0.048
surviving fraction ([5]; 10 nM): 0.659 ± 0.026
surviving fraction ([5]; 50 nM): 0.0477 ± 0.0021
surviving fraction ([5]; 100 nM): 0.0237 ± 0.0015
surviving fraction ([5]; 500 nM): 0.021 ± 0.001
surviving fraction ([5]; 1000 nM): 0.027 ± 0.0017
surviving fraction ([6]; 0.5 nM): 1.02 ± 0.024
surviving fraction ([6]; 1 nM): 0.998 ± 0.013
surviving fraction ([6]; 5 nM): 1.09 ± 0.041
surviving fraction ([6]; 10 nM): 1.08 ± 0.038
surviving fraction ([6]; 50 nM): 1.11 ± 0.046
surviving fraction ([6]; 100 nM): 1.08 ± 0.027
surviving fraction ([6]; 500 nM): 0.999 ± 0.033
surviving fraction ([6]; 1000 nM): 1.01 ± 0.033
surviving fraction ([7]; 0.5 nM): 0.9333 ± 0.0045
surviving fraction ([7]; 1 nM): 0.919 ± 0.025
surviving fraction ([7]; 5 nM): 0.989 ± 0.033
surviving fraction ([7]; 10 nM): 0.963 ± 0.012
surviving fraction ([7]; 50 nM): 0.971 ± 0.03
surviving fraction ([7]; 100 nM): 0.943 ± 0.018
surviving fraction ([7]; 500 nM): 0.896 ± 0.017
surviving fraction ([7]; 1000 nM): 0.9223 ± 0.0068
surviving fraction ([8]; 0.5 nM): 1.04 ± 0.045
surviving fraction ([8]; 1 nM): 1.04 ± 0.046
surviving fraction ([8]; 5 nM): 1.09 ± 0.038
surviving fraction ([8]; 10 nM): 1.08 ± 0.033
surviving fraction ([8]; 50 nM): 1.09 ± 0.039
surviving fraction ([8]; 100 nM): 1.12 ± 0.042
surviving fraction ([8]; 500 nM): 1.1 ± 0.032
surviving fraction ([8]; 1000 nM): 1.06 ± 0.044
surviving fraction ([9]; 0.5 nM): 1.08 ± 0.043
surviving fraction ([9]; 1 nM): 1 ± 0.023
surviving fraction ([9]; 5 nM): 1.08 ± 0.031
surviving fraction ([9]; 10 nM): 1.07 ± 0.045
surviving fraction ([9]; 50 nM): 1.08 ± 0.034
surviving fraction ([9]; 100 nM): 1.076 ± 0.004
surviving fraction ([9]; 500 nM): 1.05 ± 0.055
surviving fraction ([9]; 1000 nM): 1.01 ± 0.032
area under dose-response curve [10]: 2.52
area under dose-response curve [11]: 0.809
area under dose-response curve [12]: 3.25
area under dose-response curve [13]: 0.972
area under dose-response curve [14]: 1.43
area under dose-response curve [15]: 3.47
area under dose-response curve [16]: 3.11
area under dose-response curve [17]: 3.57
